Assay results taken from PubChem BioAssay AID2060899 (Molecular Pharmacology Branch, DTP, NCI, 2025).

Tested on: 565726-208-R1-J5-PDC complex spheroids, growth inhibition
Test: Anticancer human tumor 565726-208-R1-J5-PDC patient-derived pancreatic adenocarcinoma cell line growth inhibition [RAS]
Settings: for viability, T/C: stronger effect = lower value
Method in brief: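 Tumour cells grown as complex spheroids with HUVEC endothelial cells and mesenchymal stem cells, treated with RAS pathway inhibitor combinations. Each agent spans half-log steps from near clinical Cmax, or 10 microM where Cmax is unknown.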

[1] = curve of first compound, second compound 0.00316 µM
[2] = curve of first compound, second compound 0.01 µM
[3] = curve of first compound, second compound 0.0316 µM
[4] = curve of first compound, second compound 0.1 µM
[5] = curve of first compound, second compound 0.316 µM
[6] = curve of first compound, second compound 1 µM
[7] = second compound 0.00316 µM, first compound 0.0316 µM
[8] = second compound 0.00316 µM, first compound 0.1 µM
[9] = second compound 0.00316 µM, first compound 0.316 µM
[10] = second compound 0.00316 µM, first compound 1 µM
[11] = second compound 0.01 µM, first compound 0.0316 µM
[12] = second compound 0.01 µM, first compound 0.1 µM
[13] = second compound 0.01 µM, first compound 0.316 µM
[14] = second compound 0.01 µM, first compound 1 µM
[15] = second compound 0.0316 µM, first compound 0.0316 µM
[16] = second compound 0.0316 µM, first compound 0.1 µM
[17] = second compound 0.0316 µM, first compound 0.316 µM
[18] = second compound 0.0316 µM, first compound 1 µM
[19] = second compound 0.1 µM, first compound 0.0316 µM
[20] = second compound 0.1 µM, first compound 0.1 µM
[21] = second compound 0.1 µM, first compound 0.316 µM
[22] = second compound 0.1 µM, first compound 1 µM
[23] = second compound 0.316 µM, first compound 0.0316 µM
[24] = second compound 0.316 µM, first compound 0.1 µM
[25] = second compound 0.316 µM, first compound 0.316 µM
[26] = second compound 0.316 µM, first compound 1 µM
[27] = second compound 1 µM, first compound 0.0316 µM
[28] = second compound 1 µM, first compound 0.1 µM
[29] = second compound 1 µM, first compound 0.316 µM
[30] = second compound 1 µM, first compound 1 µM
[31] = second compound 0.00316 µM, first compound 3.16 µM
[32] = second compound 0.00316 µM, first compound 10 µM
[33] = second compound 0.01 µM, first compound 3.16 µM
[34] = second compound 0.01 µM, first compound 10 µM
[35] = second compound 0.0316 µM, first compound 3.16 µM
[36] = second compound 0.0316 µM, first compound 10 µM
[37] = second compound 0.1 µM, first compound 3.16 µM
[38] = second compound 0.1 µM, first compound 10 µM
[39] = second compound 0.316 µM, first compound 3.16 µM
[40] = second compound 0.316 µM, first compound 10 µM
[41] = second compound 1 µM, first compound 3.16 µM
[42] = second compound 1 µM, first compound 10 µM
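Also: spheroids exposed to compounds for seven days before readout.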
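For viability, T/C in this document: 100% = DMSO vehicle control viability.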

`C=CC(=O)Nc1cc(Nc2nccc(-c3cn(C)c4ccccc34)n2)c(OC)cc1N(C)CCN(C)C` + C=CC(=O)N1CCN(c2nc(OCC3CCCN3C)nc3c(F)c(-c4nc(N)cc(C)c4C(F)(F)F)c(Cl)cc23)C(C)C1 gave an IC50 [1] of over 1 µM, an IC50 [2] of over 1 µM and an IC50 [3] of over 1 µM. For the same compound, the IC50 [4] was over 1 µM, the IC50 [5] was over 1 µM and the IC50 [6] was over 1 µM. The viability, T/C (second compound 0.00316 µM, first compound 0.00316 µM) was 105%, the viability, T/C (second compound 0.00316 µM, first compound 0.01 µM) was 171% and the viability, T/C [7] was 121%. The viability, T/C [8] was 90.5%, the viability, T/C [9] was 94.2% and the viability, T/C [10] was 121%. It also gave a viability, T/C (second compound 0.01 µM, first compound 0.00316 µM) of 137%, a viability, T/C (second compound 0.01 µM, first compound 0.01 µM) of 150% and a viability, T/C [11] of 106%. It also gave a viability, T/C [12] of 94.1%, a viability, T/C [13] of 80.9% and a viability, T/C [14] of 128%. It also gave a viability, T/C (second compound 0.0316 µM, first compound 0.00316 µM) of 168%, a viability, T/C (second compound 0.0316 µM, first compound 0.01 µM) of 157% and a viability, T/C [15] of 88.9%. The viability, T/C [16] was 105%, the viability, T/C [17] was 87.6% and the viability, T/C [18] was 114%. It also gave a viability, T/C (second compound 0.1 µM, first compound 0.00316 µM) of 135%, a viability, T/C (second compound 0.1 µM, first compound 0.01 µM) of 162% and a viability, T/C [19] of 124%. It also gave a viability, T/C [20] of 87.1%, a viability, T/C [21] of 82% and a viability, T/C [22] of 108%. The viability, T/C (second compound 0.316 µM, first compound 0.00316 µM) was 161%, the viability, T/C (second compound 0.316 µM, first compound 0.01 µM) was 152% and the viability, T/C [23] was 99.8%. The viability, T/C [24] was 106%, the viability, T/C [25] was 74.8% and the viability, T/C [26] was 141%. The viability, T/C (second compound 1 µM, first compound 0.00316 µM) was 145%, the viability, T/C (second compound 1 µM, first compound 0.01 µM) was 159% and the viability, T/C [27] was 101%. The viability, T/C [28] was 115%, the viability, T/C [29] was 87.3% and the viability, T/C [30] was 109%.
`NC1c2ccccc2OC12CCN(c1cnc3c(N4CCCc5ncccc54)n[nH]c3n1)CC2` (stereo not drawn) + C=CC(=O)N1CCN(c2nc(OCC3CCCN3C)nc3c(F)c(-c4nc(N)cc(C)c4C(F)(F)F)c(Cl)cc23)C(C)C1 was tested, and the IC50 [1] was over 10 µM, the IC50 [2] was over 10 µM and the IC50 [3] was over 10 µM. It also gave an IC50 [4] of over 10 µM, an IC50 [5] of over 10 µM and an IC50 [6] of over 10 µM. It also gave a viability, T/C [7] of 72.7%, a viability, T/C [8] of 94.8% and a viability, T/C [9] of 66.4%. The viability, T/C [10] was 59.4%, the viability, T/C [31] was 75.9% and the viability, T/C [32] was 106%. It also gave a viability, T/C [11] of 83.5%, a viability, T/C [12] of 121% and a viability, T/C [13] of 70.8%. For the same compound, the viability, T/C [14] was 59.3%, the viability, T/C [33] was 79.5% and the viability, T/C [34] was 102%. For the same compound, the viability, T/C [15] was 122%, the viability, T/C [16] was 135% and the viability, T/C [17] was 61.5%. For the same compound, the viability, T/C [18] was 70.8%, the viability, T/C [35] was 85% and the viability, T/C [36] was 92.4%. For the same compound, the viability, T/C [19] was 136%, the viability, T/C [20] was 131% and the viability, T/C [21] was 88.6%. The viability, T/C [22] was 56.3%, the viability, T/C [37] was 55% and the viability, T/C [38] was 93.7%. The viability, T/C [23] was 108%, the viability, T/C [24] was 134% and the viability, T/C [25] was 59.7%. It also gave a viability, T/C [26] of 64.7%, a viability, T/C [39] of 58.6% and a viability, T/C [40] of 104%. For the same compound, the viability, T/C [27] was 99.5%, the viability, T/C [28] was 109% and the viability, T/C [29] was 69.3%. The viability, T/C [30] was 61.8%, the viability, T/C [41] was 71.4% and the viability, T/C [42] was 106%.
With `CCn1c(-c2cccnc2C(C)OC)c2c3cc(ccc31)N1CCOC(CC(NC(=O)C(C(C)C)N(C)C(=O)C3(F)CCN(C(=O)C#CC(C)(C)N(C)C)CC3)C(=O)N3CCCC(N3)C(=O)OCC(C)(C)C2)C1` (stereo not drawn) the viability, T/C (compound 0.000949 µM) was 102% [middle of 8 runs], the viability, T/C (compound 0.003 µM) was 99.7% [middle of 8 runs] and the viability, T/C (compound 0.00949 µM) was 104% [middle of 8 runs]. For the same compound, the viability, T/C (compound 0.03 µM) was 103% [middle of 8 runs], the viability, T/C (compound 0.0949 µM) was 103% [middle of 8 runs] and the viability, T/C (compound 0.3 µM) was 90% [middle of 8 runs]. It also gave an IC50 (compound alone, run of 07/09/2024) of over 0.3 µM.
For `CC1(O)CCCC1n1c(=O)c(C(F)F)cc2cnc(NC3CCN(S(C)(=O)=O)CC3)nc21` (stereo not drawn) + C=CC(=O)N1CCN(c2nc(OCC3CCCN3C)nc3c(F)c(-c4nc(N)cc(C)c4C(F)(F)F)c(Cl)cc23)C(C)C1, the IC50 [1] was 4.25 µM, the IC50 [2] was 3.86 µM and the IC50 [3] was 1.88 µM. The IC50 [4] was 3.18 µM, the IC50 [5] was 3.14 µM and the IC50 [6] was 3.09 µM. For the same compound, the viability, T/C [7] was 84.6%, the viability, T/C [8] was 101% and the viability, T/C [9] was 69.9%. For the same compound, the viability, T/C [10] was 77.8%, the viability, T/C [31] was 67.8% and the viability, T/C [32] was 7.33%. The viability, T/C [11] was 111%, the viability, T/C [12] was 116% and the viability, T/C [13] was 71.8%. The viability, T/C [14] was 78.2%, the viability, T/C [33] was 73.2% and the viability, T/C [34] was 8.22%. The viability, T/C [15] was 122%, the viability, T/C [16] was 119% and the viability, T/C [17] was 61.8%. For the same compound, the viability, T/C [18] was 68.8%, the viability, T/C [35] was 59.5% and the viability, T/C [36] was 4.81%. It also gave a viability, T/C [19] of 117%, a viability, T/C [20] of 116% and a viability, T/C [21] of 63.8%. It also gave a viability, T/C [22] of 73.9%, a viability, T/C [37] of 71.2% and a viability, T/C [38] of 8.5%. It also gave a viability, T/C [23] of 111%, a viability, T/C [24] of 116% and a viability, T/C [25] of 63%. It also gave a viability, T/C [26] of 77.1%, a viability, T/C [39] of 64.3% and a viability, T/C [40] of 7.59%. For the same compound, the viability, T/C [27] was 122%, the viability, T/C [28] was 112% and the viability, T/C [29] was 73.5%. For the same compound, the viability, T/C [30] was 89%, the viability, T/C [41] was 53% and the viability, T/C [42] was 6.97%.
